Experimental data from US8709747B2, “Biphotonic photosensitizers, nanoparticles containing the same and their use as drugs” (Centre National de la Recherche Scientifique, priority 2009, dated 2014).
Values belong to the compound of their own block, whether it stands above or below them.

How the values were obtained:
[1] = Photophysical properties (absorption, emission, fluorescence) in solution or dispersion; format: physicochemical; settings: for Φf (fluorescence quantum yield): relative to quinine in 0.5 M H2SO4; for Φ / εmax / λmax^abs / λmax^em / quantum yield for fluorescence: in ethanol; for quantum yield for fluorescence: orange emission
[2] = Two-photon absorption cross section; format: physicochemical; settings: for two-photon absorption cross section: at 720 nm; for λmax^TPA / σ2^max: table titled in ethanol
[3] = Quantum yield for singlet oxygen generation; format: physicochemical; settings: in toluene
[4] = spectral range of interest; Drobizhev et al.; cited from earlier work

Stokes shift ([1]; AcOEt): 4605 cm⁻¹
knr (non-radiative decay rate) ([1]; AcOEt): 0.34 10^9 s^−1
kr (radiative decay rate) ([1]; AcOEt): 0.36 10^9 s^−1
r (fluorescence anisotropy) ([1]; AcOEt): 0.12
λabs ([1]; AcOEt): 435 nm
λem ([1]; AcOEt): 544 nm
τ ([1]; AcOEt): 1.42 ns
τo (radiative lifetime) ([1]; AcOEt): 2.77 ns
Φf (fluorescence quantum yield) ([1]; AcOEt): 0.51
Stokes shift ([1]; Acetone): 5950 cm⁻¹
knr (non-radiative decay rate) ([1]; Acetone): 0.89 10^9 s^−1
kr (radiative decay rate) ([1]; Acetone): 0.25 10^9 s^−1
r (fluorescence anisotropy) ([1]; Acetone): 0.13
λabs ([1]; Acetone): 437.5 nm
λem ([1]; Acetone): 591.5 nm
τ ([1]; Acetone): 0.88 ns
τo (radiative lifetime) ([1]; Acetone): 4.02 ns
Φf (fluorescence quantum yield) ([1]; Acetone): 0.22
Stokes shift ([1]; Bu2O): 2700 cm⁻¹
knr (non-radiative decay rate) ([1]; Bu2O): 0.45 10^9 s^−1
kr (radiative decay rate) ([1]; Bu2O): 0.56 10^9 s^−1
r (fluorescence anisotropy) ([1]; Bu2O): 0.19
λabs ([1]; Bu2O): 433.5 nm
λem ([1]; Bu2O): 491 nm
τ ([1]; Bu2O): 0.99 ns
τo (radiative lifetime) ([1]; Bu2O): 1.79 ns
Φf (fluorescence quantum yield) ([1]; Bu2O): 0.55
Stokes shift ([1]; CH3CN): 6355 cm⁻¹
knr (non-radiative decay rate) ([1]; CH3CN): 0.92 10^9 s^−1
kr (radiative decay rate) ([1]; CH3CN): 0.05 10^9 s^−1
r (fluorescence anisotropy) ([1]; CH3CN): 0.21
λabs ([1]; CH3CN): 436.5 nm
λem ([1]; CH3CN): 604 nm
τ ([1]; CH3CN): 1.03 ns
τo (radiative lifetime) ([1]; CH3CN): 19.99 ns
Φf (fluorescence quantum yield) ([1]; CH3CN): 0.052
Stokes shift ([1]; CHCl3): 4035 cm⁻¹
knr (non-radiative decay rate) ([1]; CHCl3): 0.43 10^9 s^−1
kr (radiative decay rate) ([1]; CHCl3): 0.39 10^9 s^−1
r (fluorescence anisotropy) ([1]; CHCl3): 0.15
λabs ([1]; CHCl3): 431.5 nm
λem ([1]; CHCl3): 522.5 nm
τ ([1]; CHCl3): 1.22 ns
τo (radiative lifetime) ([1]; CHCl3): 2.54 ns
Φf (fluorescence quantum yield) ([1]; CHCl3): 0.48
Stokes shift ([1]; DCM): 4870 cm⁻¹
knr (non-radiative decay rate) ([1]; DCM): 0.27 10^9 s^−1
kr (radiative decay rate) ([1]; DCM): 0.42 10^9 s^−1
r (fluorescence anisotropy) ([1]; DCM): 0.10
λabs ([1]; DCM): 433.5 nm
λem ([1]; DCM): 549.5 nm
τ ([1]; DCM): 1.43 ns
τo (radiative lifetime) ([1]; DCM): 2.35 ns
Φf (fluorescence quantum yield) ([1]; DCM): 0.61
Stokes shift ([1]; DMSO): 6090 cm⁻¹
knr (non-radiative decay rate) ([1]; DMSO): 1.94 10^9 s^−1
kr (radiative decay rate) ([1]; DMSO): 0.10 10^9 s^−1
r (fluorescence anisotropy) ([1]; DMSO): 0.28
λabs ([1]; DMSO): 448.5 nm
λem ([1]; DMSO): 617 nm
τ ([1]; DMSO): 0.49 ns
τo (radiative lifetime) ([1]; DMSO): 9.7 ns
Φf (fluorescence quantum yield) ([1]; DMSO): 0.051
Stokes shift ([1]; THF): 4865 cm⁻¹
knr (non-radiative decay rate) ([1]; THF): 0.32 10^9 s^−1
kr (radiative decay rate) ([1]; THF): 0.34 10^9 s^−1
r (fluorescence anisotropy) ([1]; THF): 0.12
λabs ([1]; THF): 437 nm
λem ([1]; THF): 555 nm
τ ([1]; THF): 1.51 ns
τo (radiative lifetime) ([1]; THF): 2.93 ns
Φf (fluorescence quantum yield) ([1]; THF): 0.51
Stokes shift ([1]; Toluene): 2650 cm⁻¹
knr (non-radiative decay rate) ([1]; Toluene): 0.56 10^9 s^−1
kr (radiative decay rate) ([1]; Toluene): 0.52 10^9 s^−1
r (fluorescence anisotropy) ([1]; Toluene): 0.16
λabs ([1]; Toluene): 436 nm
λem ([1]; Toluene): 493 nm
τ ([1]; Toluene): 0.93 ns
τo (radiative lifetime) ([1]; Toluene): 1.94 ns
Φf (fluorescence quantum yield) ([1]; Toluene): 0.48
Φ [1]: 0.65
εmax [1]: 1.04 10^5 M^−1cm^−1
λmax^abs [1]: 432 nm
λmax^em [1]: 561 nm
quantum yield for fluorescence [1]: 65%
two-photon absorption cross section [2]: 1340 GM
λmax^TPA [2]: 730 nm
σ2^max [2]: 1204 GM
quantum yield for singulet oxygen generation [3]: 22%
Structure (SMILES): CCCCC1(CCCC)c2cc(C#Cc3ccc(/C=C/c4ccc(N(CC)CCO)cc4)s3)ccc2-c2ccc(C#Cc3ccc(/C=C/c4ccc(N(CC)CCO)cc4)s3)cc21 [Photosensitizer 6a]

Φ [1]: 0.33
εmax [1]: 0.98 10^5 M^−1cm^−1
λmax^abs [1]: 434 nm
λmax^em [1]: 575 nm
quantum yield for fluorescence [1]: 65%
two-photon absorption cross section [2]: 1530 GM
λmax^TPA [2]: 730 nm
σ2^max [2]: 1530 GM
quantum yield for singulet oxygen generation [3]: 22%
Structure (SMILES): CCN(CCO)c1ccc(/C=C/c2ccc(C#Cc3ccc4c(c3)C(CCOCCOCCOC)(CCOCCOCCOC)c3cc(C#Cc5ccc(/C=C/c6ccc(N(CC)CCO)cc6)s5)ccc3-4)s2)cc1 [Photosensitizer 6b]

Structure (SMILES): C1=Cc2nc1c(-c1ccccc1)c1ccc([nH]1)c(-c1ccccc1)c1nc(c(-c3ccccc3)c3ccc([nH]3)c2-c2ccccc2)C=C1 [tetraphenylporphine]
two-photon absorption (TPA) cross-section [4]: 15 GM
